The source of these data is patent US6355443B1, “4-(4-hydroxystyryl) pyridine-containing substrates for an analyte dependent enzyme activation system” (priority 1999, dated 2002).

For series [1], the target named is T1, Horseradish peroxidase (HRP) conjugated wheat germ agglutinin (Armoracia rusticana, UniProt P00433).
T1 construct: purchased Sigma; St. Louis, Mo
T1 sequence (P00433 31-338 limits assumed): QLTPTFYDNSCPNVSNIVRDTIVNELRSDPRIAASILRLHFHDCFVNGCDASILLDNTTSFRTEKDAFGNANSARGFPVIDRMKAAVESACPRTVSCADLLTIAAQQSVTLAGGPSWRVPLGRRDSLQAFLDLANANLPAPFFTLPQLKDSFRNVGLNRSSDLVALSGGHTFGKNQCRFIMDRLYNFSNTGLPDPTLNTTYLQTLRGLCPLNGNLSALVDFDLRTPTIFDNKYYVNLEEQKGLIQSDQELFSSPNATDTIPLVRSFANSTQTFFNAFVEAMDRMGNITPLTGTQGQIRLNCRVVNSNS
Description: Sensitive HRP localization using a 4-(4-hydroxystyryl) pyridine containing compound. Conditions: sections of mouse intestine; for fluorescence labeling of tissue sections after HRP-catalyzed deposition: HRP-conjugated wheat germ agglutinin 0.5 μg/ml, substrate 100 μg/ml, 10 min, 360 nm excitation/>400 nm emission. The protocol:
Sections of paraffin-embedded mouse intestine were deparaffinized and non-specific binding sites blocked by treatment for thirty minutes in PBS-blocking buffer (PBS-BB; 0.1M phosphate buffered saline, pH 7.2; 1.0% bovine serum albumin, 0.2% non-fat powdered milk, and 0.3% Triton X-100). Horseradish peroxidase (HRP) conjugated wheat germ agglutinin (Sigma; St. Louis, Mo.) at a concentration of 0.5 μg/ml in PBS-BB was incubated on sections for one hour at room temperature. Control sections were incubated in PBS-BB alone. Sections were then washed in PBS (three X for five minutes each wash) and reacted for ten minutes at room temperature in a solution containing 4-(4-hydroxystyryl) pyridinium propylsulfonate (HPPS) (Molecular Biosciences; Boulder, Colo.) at 100 μg/ml in TSA Amplification Diluent, (NEN Life Science Products, Inc.; Boston, Mass.). Sections were then washed in PBS (three X for five minutes each wash), mounted in PBS:Glycerol (1:1) and coverslipped. Sections were viewed with a Zeiss Axioskop microscope equipped with epifluorescence and a filter set with excitation/emission characteristics of 360 nm peak excitation/>400 nm long pass emission. Photomicrographs were taken using a Zeiss MC100 camera system.

For series [2], the target named is T1, Horseradish peroxidase (HRP) conjugated wheat germ agglutinin. Description: Stability of deposited fluorescent reaction product in aqueous vs non-aqueous mounting medium. The protocol: Sections of paraffin-embedded mouse intestine were deparaffinized and non-specific binding sites were blocked by treatment for thirty minutes in PBS-BB. HRP conjugated wheat germ agglutinin (Sigma), at a concentration of 0.5 μg/ml in PBS-BB, was incubated on sections for one hour at room temperature. Sections were then washed in PBS (three X for five minutes each wash) and were reacted for ten minutes at room temperature in a solution of 4-(4-hydroxystyryl) methylpyridinium tosylate (HMPT) (Molecular Biosciences) at 100 μg/ml in TSA Amplification Diluent (NEN Life Science Products, Inc.). Sections were then washed in PBS (three X for five minutes each wash) and either mounted in PBS:Glycerol (1:1) or dehydrated in graded ethanol solutions (0%, 70%, 95%, 100%, 100% three minutes each) and xylene (two X for three minutes each) mounted in Permount (a non-aqueous mounting medium; Fisher Scientific, Pittsburgh, Pa.) and coverslipped. The fluorescent signal intensity of slides mounted in aqueous (PBS:Glycerol) or non-aqueous (Permount) media was compared using a Zeiss Axioskop microscope equipped with epifluorescence and a 360 nm excitation/>400 nm emission filter set. Photomicrographs were taken using a Zeiss MC100 camera system and standard two second exposures.

For the compound “4-(4-hydroxystyryl) pyridinium propylsulfonate [HPPS]”, the “concentration of conjugated wheat germ agglutinin used/required for wheat germ agglutinin localization” value in series [1] turned out to be 0.5 µg/mL. Further, the “fluorescence labeling of tissue sections after HRP-catalyzed deposition” value in series [1] was “intense HPPS fluorescence was localized to intestinal goblet cells”; in series [1] (listed as EPPS), “intense EPPS fluorescence localized to intestinal goblet cells”.

Take `C[n+]1ccc(C=Cc2ccc(O)cc2)cc1.Cc1ccc(S(=O)(=O)[O-])cc1` [HMPT, 4-(4-hydroxystyryl) methylpyridinium tosylate]: the “background signal / signal/noise ratio when mounted in non-aqueous media” value in series [2] (Permount, non-aqueous) is recorded as “background signal is reduced resulting in a better signal/noise ratio”. In addition, in series [2] (aqueous and non-aqueous medium), the “localization of wheat germ agglutinin reactivity” value was “Strong wheat germ agglutinin reactivity was localized to the intestinal epithelium under both conditions”. Also, the “fluorescence in aqueous solution” value in series [2] (section of mouse intestine, aqueous (FIG. 2A)) is recorded as “bright fluorescence in aqueous solution”. In series [2] (section of mouse intestine, non-aqueous (FIG. 2B)), the “reaction product fluorescence in non-aqueous medium” value was “bright reaction product in a non-aqueous medium”. The “fluorescence intensity of reaction product in aqueous versus non-aqueous medium” value in series [2] (sections of mouse intestine, PBS:Glycerol (aqueous) vs Permount (non-aqueous), two second exposures) is “equally bright in aqueous (FIG. 2A) and non-aqueous (FIG. 2B) medium”.
